For one test, the target named is T1, Adenosine receptor A1 (Homo sapiens, UniProt P30542).
T1 sequence (P30542 whole entry): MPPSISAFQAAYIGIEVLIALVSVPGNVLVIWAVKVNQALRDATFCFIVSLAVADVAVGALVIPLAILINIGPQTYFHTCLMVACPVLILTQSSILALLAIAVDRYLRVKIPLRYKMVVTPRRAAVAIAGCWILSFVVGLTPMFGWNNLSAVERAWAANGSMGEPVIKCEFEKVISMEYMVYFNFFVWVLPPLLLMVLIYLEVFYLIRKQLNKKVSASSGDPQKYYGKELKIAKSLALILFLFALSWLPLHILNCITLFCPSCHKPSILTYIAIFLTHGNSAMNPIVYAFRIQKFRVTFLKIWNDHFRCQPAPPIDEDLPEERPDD
The test is described as follows: Displacement of [3H]-CCPA from human A1 receptor stably expressed in CHO cell membranes by radioligand competitive binding assay. Details: species or system Cell membrane. Background: In a radioligand displacement assay an active substance lowers the binding of a labelled ligand.

The target of another test is Adenosine receptor A2a (Homo sapiens, UniProt P29274). The experiment in a line: Displacement of [3H]-NECA from human A2A receptor stably expressed in CHO cell membranes by radioligand competitive binding assay. Details: species or system Cell membrane.
For another test, the target named is T2, Adenosine receptor A3 (Homo sapiens, UniProt P0DMS8).
T2 sequence (P0DMS8 whole entry): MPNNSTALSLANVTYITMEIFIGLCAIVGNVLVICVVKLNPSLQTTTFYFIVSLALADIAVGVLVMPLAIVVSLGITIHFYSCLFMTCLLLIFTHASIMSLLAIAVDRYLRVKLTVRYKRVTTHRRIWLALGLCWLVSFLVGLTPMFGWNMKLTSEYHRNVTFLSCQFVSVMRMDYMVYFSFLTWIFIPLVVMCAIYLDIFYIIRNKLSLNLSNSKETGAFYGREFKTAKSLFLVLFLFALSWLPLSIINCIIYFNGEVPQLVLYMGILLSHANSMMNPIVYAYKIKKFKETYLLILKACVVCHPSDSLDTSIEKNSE
The experiment in a line: Displacement of [3H]-HEMADO from human A3 receptor stably expressed in CHO cell membranes by radioligand competitive binding assay. Set-up: species or system Cell membrane.

The target in the next test is Carbonic anhydrase 1 (Homo sapiens, UniProt P00915). The test is described as follows: Inhibition of human CA1 incubated for 15 mins by stopped- flow CO2 hydrase assay method.
The next test concerns the target Carbonic anhydrase 2 (Homo sapiens, UniProt P00918). The test is described as follows: Inhibition of human CA2 incubated for 15 mins by stopped- flow CO2 hydrase assay method.
In another test the target is Carbonic anhydrase 9 (Homo sapiens, UniProt Q16790). The experiment in a line: Inhibition of human CA9 incubated for 15 mins by stopped- flow CO2 hydrase assay method.
The target of another test is Carbonic anhydrase 12 (Homo sapiens, UniProt O43570). The test is described as follows: Inhibition of human CA12 incubated for 15 mins by stopped- flow CO2 hydrase assay method.
The target of a further test is T3, Adenosine receptor A2b (Homo sapiens, UniProt P29275).
T3 sequence (P29275 whole entry): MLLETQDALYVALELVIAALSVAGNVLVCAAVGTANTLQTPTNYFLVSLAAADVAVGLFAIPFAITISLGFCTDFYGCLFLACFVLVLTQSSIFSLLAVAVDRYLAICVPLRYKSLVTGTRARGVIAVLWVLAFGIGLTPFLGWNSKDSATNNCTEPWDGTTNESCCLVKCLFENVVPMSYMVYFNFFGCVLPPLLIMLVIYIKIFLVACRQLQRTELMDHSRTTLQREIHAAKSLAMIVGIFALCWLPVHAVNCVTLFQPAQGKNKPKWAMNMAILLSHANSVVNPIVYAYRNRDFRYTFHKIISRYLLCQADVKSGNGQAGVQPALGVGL
The test is described as follows: Antagonist activity at human A2B receptor expressed in CHO cell membrane assessed as reduction in NECA-[…] level by GloSensor CAMP assay. Format: cell membranes.

Sequence of Carbonic anhydrase 12 (O43570 whole entry): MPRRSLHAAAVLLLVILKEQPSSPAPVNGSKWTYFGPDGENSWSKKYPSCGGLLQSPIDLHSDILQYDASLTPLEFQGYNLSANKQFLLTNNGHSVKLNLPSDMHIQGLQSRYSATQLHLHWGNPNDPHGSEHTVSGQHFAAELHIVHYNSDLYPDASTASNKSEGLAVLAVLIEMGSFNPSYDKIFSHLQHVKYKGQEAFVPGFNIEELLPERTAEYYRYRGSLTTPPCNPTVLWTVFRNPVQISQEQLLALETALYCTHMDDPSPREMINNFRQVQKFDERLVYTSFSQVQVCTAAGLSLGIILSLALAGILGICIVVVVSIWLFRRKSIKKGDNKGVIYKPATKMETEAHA
Sequence of Carbonic anhydrase 1 (P00915 whole entry): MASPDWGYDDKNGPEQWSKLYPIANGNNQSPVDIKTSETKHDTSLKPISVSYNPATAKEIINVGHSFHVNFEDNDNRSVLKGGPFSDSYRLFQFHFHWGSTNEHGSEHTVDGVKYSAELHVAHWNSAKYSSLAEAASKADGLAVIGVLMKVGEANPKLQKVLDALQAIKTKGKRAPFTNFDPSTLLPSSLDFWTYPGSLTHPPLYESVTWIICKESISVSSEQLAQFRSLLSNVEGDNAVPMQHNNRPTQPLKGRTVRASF
Sequence of Adenosine receptor A2a (P29274 whole entry): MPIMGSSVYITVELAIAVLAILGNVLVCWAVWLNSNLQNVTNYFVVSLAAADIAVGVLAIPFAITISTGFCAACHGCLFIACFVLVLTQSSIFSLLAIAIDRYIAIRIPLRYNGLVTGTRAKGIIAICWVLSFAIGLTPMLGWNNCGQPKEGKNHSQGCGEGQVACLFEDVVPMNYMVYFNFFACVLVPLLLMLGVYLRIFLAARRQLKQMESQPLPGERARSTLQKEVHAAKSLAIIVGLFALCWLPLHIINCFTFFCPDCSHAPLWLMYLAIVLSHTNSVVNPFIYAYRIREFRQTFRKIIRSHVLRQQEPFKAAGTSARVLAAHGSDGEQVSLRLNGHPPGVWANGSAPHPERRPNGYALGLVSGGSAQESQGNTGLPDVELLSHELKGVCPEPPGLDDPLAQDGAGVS

Broadly, the Ki is a dissociation constant, usually derived from enzyme kinetics or from competition with a known ligand. Read a low Ki as a stronger hold on the target. Broadly, the IC50 is the concentration at which inhibition is half-maximal. For the compound `CCOC(=O)CNc1ccc(-c2cn3c(=O)n(-c4ccccc4)nc3c(N)n2)cc1`, the Ki at Adenosine receptor A1 was 0.771 µM; on Adenosine receptor A2a, 6.3 µM; on Adenosine receptor A3 it was over 30 µM; on Carbonic anhydrase 1, over 100 µM; at Carbonic anhydrase 2 it was over 100 µM; on Carbonic anhydrase 9 it was over 100 µM. Also, on Carbonic anhydrase 12, the Ki is over 100 µM. Further, the IC50 on Adenosine receptor A2b is over 30 µM.
As to `Nc1nc(-c2cccc(O)c2)cn2c(=O)n(-c3ccccc3)nc12`, the Ki at Carbonic anhydrase 1 was over 100 µM; at Carbonic anhydrase 2, 93 µM; on Carbonic anhydrase 9, over 100 µM; at Carbonic anhydrase 12 it was over 100 µM. In addition, at Adenosine receptor A2b, the IC50 was over 30 µM.
As to `Nc1nc(-c2ccc(OCCNC(=O)c3ccc(S(N)(=O)=O)cc3)cc2)cn2c(=O)n(-c3ccccc3)nc12`, the Ki was determined as 0.42 µM at Adenosine receptor A1; 0.0068 µM on Adenosine receptor A2a; 6.65 µM at Adenosine receptor A3; 0.934 µM at Carbonic anhydrase 1; 0.183 µM at Carbonic anhydrase 2; 5.95 µM on Carbonic anhydrase 9. The compound further returned a Ki on Carbonic anhydrase 12 of 0.528 µM. Besides, the 50% inhibitory concentration (IC50) at Adenosine receptor A2b is over 30 µM.
As for `Nc1nc(-c2ccc(NC(=O)c3ccc(C(=O)O)cc3)cc2)cn2c(=O)n(-c3ccccc3)nc12`, the inhibitory constant (Ki) is 2.37 µM on Adenosine receptor A1; 0.0812 µM at Adenosine receptor A2a; over 30 µM at Adenosine receptor A3; over 100 µM at Carbonic anhydrase 1; over 100 µM on Carbonic anhydrase 2; over 100 µM at Carbonic anhydrase 9. In addition, the inhibition constant (Ki) at Carbonic anhydrase 12 is over 100 µM. Further, the IC50 at Adenosine receptor A2b is over 30 µM.
For `Nc1nc(-c2ccc(NC(=O)CCNC(=O)c3cccc(S(N)(=O)=O)c3)cc2)cn2c(=O)n(-c3ccccc3)nc12`, the Ki at Adenosine receptor A1 was 0.418 µM; at Adenosine receptor A2a, 0.0092 µM; at Adenosine receptor A3, over 30 µM; on Carbonic anhydrase 1 it was 7.28 µM; at Carbonic anhydrase 2, 0.341 µM; at Carbonic anhydrase 9, 6.92 µM. At Carbonic anhydrase 12, this compound registered an inhibitory constant (Ki) of 0.83 µM. For the same compound, the concentration for half-maximal inhibition (IC50) at Adenosine receptor A2b is over 30 µM.
In the case of `Nc1nc(-c2ccc(S(N)(=O)=O)cc2)cn2c(=O)n(-c3ccccc3)nc12`, the inhibition constant Ki on Adenosine receptor A1 came to 0.205 µM; at Adenosine receptor A2a, 0.857 µM; at Adenosine receptor A3 it was 14.8 µM; at Carbonic anhydrase 1 it was 8.02 µM; on Carbonic anhydrase 2 it was 0.703 µM; on Carbonic anhydrase 9, 8.92 µM. On Carbonic anhydrase 12, this compound yielded a Ki of 0.602 µM. In addition, the IC50 on Adenosine receptor A2b was over 30 µM.
Regarding `COc1ccc(C(=O)Nc2ccc(-c3cn4c(=O)n(-c5ccccc5)nc4c(N)n3)cc2)cc1`, the Ki is 0.418 µM on Adenosine receptor A1; 0.0007 µM on Adenosine receptor A2a; 0.279 µM at Adenosine receptor A3; over 100 µM at Carbonic anhydrase 1; over 100 µM at Carbonic anhydrase 2; over 100 µM on Carbonic anhydrase 9. Besides, the Ki on Carbonic anhydrase 12 is over 100 µM. For the same compound, at Adenosine receptor A2b, the concentration for half-maximal inhibition (IC50) is over 30 µM.
Turning to `Nc1nc(-c2ccc(O)cc2)cn2c(=O)n(-c3ccccc3)nc12`, the inhibitory constant (Ki) at Carbonic anhydrase 1, on Carbonic anhydrase 2, on Carbonic anhydrase 9 and on Carbonic anhydrase 12 was over 100 µM throughout. The half-inhibitory concentration (IC50) on Adenosine receptor A2b is over 30 µM.
On to `Nc1nc(-c2ccc(NC(=O)c3ccc(S(N)(=O)=O)cc3)cc2)cn2c(=O)n(-c3ccccc3)nc12`, for which the Ki at Adenosine receptor A1 is 4.19 µM; at Adenosine receptor A3, over 30 µM; at Carbonic anhydrase 1, 8.35 µM; at Carbonic anhydrase 2 it was 0.046 µM; at Carbonic anhydrase 9 it was 0.466 µM; on Carbonic anhydrase 12 it was 0.006 µM. Further, the IC50 at Adenosine receptor A2b is over 30 µM.
Consider `Nc1nc(-c2ccccc2O)cn2c(=O)n(-c3ccccc3)nc12`, for which the Ki on Carbonic anhydrase 1 was over 100 µM; at Carbonic anhydrase 2, 19 µM; on Carbonic anhydrase 9, over 100 µM; at Carbonic anhydrase 12, over 100 µM. Moreover, the half-inhibitory concentration (IC50) on Adenosine receptor A2b is over 30 µM.
Turning to `Nc1nc(-c2ccc(NC(=O)CCNC(=O)c3ccc(S(N)(=O)=O)cc3)cc2)cn2c(=O)n(-c3ccccc3)nc12`, the Ki at Adenosine receptor A1 was 1.07 µM; at Adenosine receptor A3, over 30 µM; on Carbonic anhydrase 1 it was 0.0515 µM; on Carbonic anhydrase 2 it was 0.0086 µM; on Carbonic anhydrase 9, 0.005 µM; on Carbonic anhydrase 12, 0.027 µM. On Adenosine receptor A2b, the IC50 was over 30 µM.

Source of the values: ChEMBL document CHEMBL4706508, “Discovery of first-in-class multi-target adenosine A receptor antagonists-carbonic anhydrase IX and XII inhibitors. 8-Amino-6-aryl-2-phenyl-1,2,4-triazolo [4,3-a]pyrazin-3-one derivatives as new potential antitumor agents” (Eur J Med Chem, 2020).
